Reference: patent US20230277449A1, “ORAL CAVITY POLYMERIC DELIVERY SYSTEMS” (YISSUM RESEARCH DEVELOPMENT COMPANY OF THE HEBREW …, priority 2020, published 2023)
Converted amounts (≈) assume the structure as drawn. Where two headings read alike, the source gives them in different places.

What was measured:
[1] = Monitored vital parameters after IV APO in pigs; assay type: in vivo, pig; conditions: 1 mg/kg IV APO, mean (lowest - highest)
Excerpt: Pigs were fasted overnight before the experiments. […] Pigs were positioned on their back.

[2] = APO release from hydrogel-based core through dialysis bag; assay type: physicochemical; conditions: 20 mg APO in 0.5 ml hydrogel pH 5.9, dialysis bag
Protocol: DDW. 100.0, 120.0 or 150 mg fish gelatin were added. No gelatin was added to the fourth group. All work was done in triplicates. After vigorous stirring full dissolution to homogenous solution was achieved. The pH of the solutions was adjusted to 5.9 by H3PO4 and KOH. 0.5 ml of each solution was introduced into dialysis bag (Specta/PorⓇDialysis membrane, MWCO 25000, flat width 12 mm). The bags were submerged into a beaker with 100 ml 0.1% ascorbic acid solution adjusted to pH 5.9 by NaOH and HCl. The solutions were held at 34° C. (±1) with constant stirring. 100 µl samples were taken at time points 0, 10, 25, 40, 60, 90, 120, 150 and 180 min into a vial containing 1 µl of 10%^v/v mercaptoethanol ethanolic solution. 100 µl of fresh receiving solution was added to the beaker to retain sink conditions. […]
2.1.4 Chromatographic analysis of in-vitro samples: The samples were injected into Waters 2695 Separation Module HPLC system coupled with Waters 2475 Multi Gamma Fluorescence Detector (Waters Co., MA, USA), into BDS Hypersil Cyano (Phenomenex, CA, USA) column (5 µm, 100 Å, 250 mm × 4.6 mm) protected by Hypersil Cyano (Phenomenex, CA, USA) pre-column (5 µm, 4 mm × 10 mm). […] Linearity curve (2.5-250 µg/ml, R^2>0.997) was performed before the batch of samples and used for quantification.

[3] = Ex-vivo permeability of APO, MTP and ATN in Ussing diffusion chamber; assay type: in vitro ADME, pig
Excerpt: Each chamber includes a heating block for temperature control and needle valves for adjustment of carbogen gas flow for oxygenation and gas lift stirring. Buccal tissues of female pigs, ~100 kg, were used in the experiments. Pigs were exposed to anesthetic agents, antibiotics, contrast agents and sacrificed by over exposure to KC1. […] Immediately following euthanasia, buccal tissue was removed and placed in ice-cold modified Ringer’s buffer (pH 7.4). Buccal mucosa segments were trimmed to 800-1000 µm by surgical scissors and tweezers and mounted into Ussing diffusion chambers. The exposed tissue surface area was 0.5 cm^2 and buffered solutions volume in each cell was 3 ml. The system was preheated to 35° C. Modified Ringer buffer was added to the receiver compartment and simulated saliva buffer to the donor side. The tissue oxygenation and the solution mixing were performed by bubbling with carbogen gas. The system was equilibrated for 30 min followed by replacing the solutions and adding 20 µl of the test solutions to the donor side of the chamber to commence the experiment.
Solutions were freshly prepared on the days of the experiments. […] When testing the effect of organic solvents, 100 µl of the simulated saliva in the donor chamber were replaced by 100 µl of 1:1EtOH:PG solution. When testing the effect of NLF 70 µl of the simulated saliva in the donor chamber were replaced by 70 µl of NLF. […] The constituents are melted at 37° C. and mixed until a clear yellow homogenous solution is obtained.
3.1.3 Experimental protocol: 100 µl samples were taken from receiver compartment at the beginning of the experiments, at half an hour and every hour until the end of the experiments. 100 µl of fresh Ringer’s buffer solution were added each time to receiver compartment. The dilution of the concentration of tested substances in the receiver compartment was accounted for. […] All samples were stored at -20° C. pending analysis.
The analysis conditions were as follows: XTerra MS (Waters Inc.) C18 Column (3.5 µm, 2.1 mm × 100 mm), temperature 45° C., flow rate 0.2 ml/min and mobile phase with a linear gradient as detailed in Table 23.
Statistical significance was stated for p<0.05. […] Papp calculation and simulations of steady state plasma levels for in-vivo testing
Apparent permeability (Papp) is calculated by Eq. 5: […]

[4] = Simulation to human plasma levels from ex-vivo Papp
Protocol: The flux (Jss) of the test substance via the buccal mucosa is calculated by Eq. 6:
Simulation of blood levels at steady state (Css) of the substances if administered in-vivo is calculated by Eq. 7:
where CL is the pharmacokinetic parameter of total clearance of the tested substance in-vivo.
Application area (A) was 50 cm^2 which corresponds to buccal area in humans.

[5] = Simulation of rat plasma levels after buccal administration; conditions: rat 330 gr, Co = 19 mg/ml, A = 0.2 cm^2, Papp = 0.51*10^-6 cm/sec
Excerpt: Papp through porcine buccal mucosa was selected (as lower Papp is of no clinical relevance).

[6] = Physicochemical properties stated in the text (log P, pKa, solubility); conditions: gelatin hydrogel, aqueous with cosolvent or surfactant or cyclodextrin, read-out: solubility in buffered hydrogel
[7] = cited from earlier work
[8] = Ex-vivo permeability of APO, MTP and ATN in Ussing diffusion chamber; assay type: in vitro ADME, pig; conditions: pH 7.4 with addition of 10% v/v NLF
[9] = IV administration of APO to pigs, pharmacokinetics; conditions: female, pig, plasma, 1 mg/kg
Protocol: 2.1.7 In-vivo protocol of IV administration: Domestic female pigs (sus scrofa domesticus) of 35-40 kg were allowed to acclimate before the experiment. Pigs were fasted overnight before the experiments. On the morning of the experiment pigs were anesthetized by xylazine 1 mg/kg, midazolam 0.04 mg/kg, ketamine 5 mg/kg and propofol 4 mg/kg. Pigs were positioned on their back. Endotracheal tube was inserted, and pigs were respired with oxygen. […] Catheter was inserted into ear vein through which physiological saline was administered. Pigs received amoxicillin 15 mg/kg antibiotic and tolfenamic acid 2 mg/kg analgesic. An intra-jugular catheter was inserted for blood sampling. Pigs were constantly monitored for their respiration rate, rectal temperature, O2 saturation, heart rate and blood pressure. Cardiovascular parameters were obtained by blood pressure monitor with porcine adapted front leg cuff. […] Plasma was collected into tubes containing 10 µl mercaptoethanol and stored at -80° C. pending analysis. Isoflurane anesthesia was terminated, and pigs were recovered under veterinary surveillance to consciousness.
The samples were reconstituted in 100 µl 1:4 MeOH:DDW solution containing 0.01%^v/v formic acid and 0.1%^v/v mercaptoethanol and injected into LC-MS-MS system.
2.1.12 Chromatographic analysis of in-vivo samples: The chromatography was performed using a Shimadzu UHPLC System. The chromatographic separations were performed on a Kinetex™ (Phenomenex, CA, USA) column (EVO C18, 2.6 µm, 100 Å, 100 × 2.1 mm), protected by a SecurityGuard™ (Phenomenex, CA, USA) ULTRA cartridge (C18, 4 × 2 mm). The injection volume was 5 µl, temperature was 40° C.
Following this analysis PK parameters were obtained.

[10] = Ex-vivo - in-vivo correlation (Jss and Css calculated from Papp for pig)
Protocol: where dQ/dt is the amount of test substance permeated over time and A is the area of buccal mucosa available for permeation. Plasma levels at steady state (Css) of the test substance following in-vivo buccal administration are calculated by Eq. 2:
Apparent permeability (Papp) is calculated by Eq. 3:
where Co is the initial concentration of the test substance near the buccal mucosa in the ABPD at the beginning of the experiment.

## CN1CCc2cccc3c2[C@H]1Cc1ccc(O)c(O)c1-3 [APO, apomorphine]
[1]
  Diastolic blood press (mmHg): 43.1 (32 - 55) mmHg
  Heart rate (beats/min): 95.2 (74 - 120) beats/min
  O2 saturation (%): 97.7 (95 - 100) %
  Respiration rate kept at (min^-1): 12.2 (11- 13) min^-1
  Systolic blood press (mmHg): 81.7 (72 - 101) mmHg
[1]; four pigs
  Rectal temp (°C): 38.2 (37.4 - 39.4) °C
[2]
  time at which all APO dose was released: 1.5 h
[3]
  Papp lower at pH 5.9 than at pH 7.4: 6 fold
[3]; female, pig, pH 7.4, read-out: Apparent permeability (Papp)
  Papp at […]: 3.13 ×10⁻⁶ cm/s
[3]; female, pig, pH 7.4 with 3.33% v/v of 1:1 ethanol: propylene glycol solution, read-out: Apparent permeability (Papp)
  Papp: 11.6 ×10⁻⁶ cm/s
[3]; female, pig, simulated saliva pH 5.9, mean (±SD), n=3, read-out: Apparent permeability (Papp)
  Papp at 0.1 mM: 0.51 ×10⁻⁶ cm/s
[3]; female, pig, simulated saliva pH 7.4, standard 0.1 mM, mean (±SD), n=3, read-out: Apparent permeability (Papp)
  Papp at 0.1 mM: 3 ×10⁻⁶ cm/s
[3]; pH 7.4 with 3.33% v/v of 1:1 ethanol: propylene glycol solution
  Apparent permeability (Papp): 11.63 10^-6 cm/sec
[3]; pH 7.4 without 10% v/v NLF
  lag-time: ~ 1 hour
[3]; simulated saliva pH 7.4, standard 0.1 mM, mean (±SD), n=3
  Apparent permeability (Papp): 3.00 (0.26) 10^-6 cm/sec
[4]; 1:1 ethanol: propylene glycol, 20 mg/ml
  Jss calculated (mg/(cm^2*h)): 0.84 mg/(cm^2*h)
[4]; pH 5.9, 20 mg/ml
  Jss calculated (mg/(cm^2*h)): 0.04 mg/(cm^2*h)
[4]; pH 7.4, 20 mg/ml
  Jss calculated (mg/(cm^2*h)): 0.22 mg/(cm^2*h)
[5]
  calculated Css: 2.3 ng/mL
[6]
  solubility: 40 mg/mL (≈ 150 mM)
[7]; human, literature
  CL: 50 to 83 mL/min/kg
  Vd: 1 to 2 L/kg
[7]; humans
  excreted unchanged to urine: up to 4%
[8]
  lag-time: 3 h
[9]
  AUC(0-inf): 107 ng·h/mL
  Vd: 6.6 L/kg
  clearance: 218 mL/min/kg
[10]
  ex-vivo predicted Css lower than in-vivo Css: 4 times
[10]; pH 5.9, 40 mg/ml APO in hydrogel, Eq. 3
  Jss calculated: 0.073 mg/(cm^2*h)
[10]; pig of 43 kg, 4.74 cm^2, Eq. 2
  Css calculated from ex-vivo Papp: 0.59 ng/mL
